Results published in patent publication US9415049B2, “Heteroaryl compounds and uses thereof” (Celgene Avilomics Research, Inc., priority 2013, dated 2016).

Assays:
BTK = biological target: T1, BTK (Homo sapiens, UniProt Q06187); experiment: Btk target site occupancy, covalent probe ELISA in Ramos cells; assay type: cell-based; details: 1 hour at 37° C., 0.09-200 nM, read-out: Ramos cell EC50 (nM), BTK occupancy
T1 construct: endogenous in cells; host or cells: Ramos cells
Method: A covalent probe shown below was used in an ELISA assay to determine occupancy of the target BTK by certain compounds according to the invention.
Ramos cells were incubated in serum-free RPMI medium for 1 hour (˜2×10^6 cells/mL in 2 mL). Test compounds were diluted from a 10 mM DMSO stock solution, to achieve a final concentration of 0.09, 0.27, 0.82, 2.47, 7.42, 22.2, 66, and 200 nM. Cells were then incubated for 1 hour at 37° C. Following incubation, cells were spun at 1100 RPM for 5 minutes then washed in 200 μL of chilled PBS. Following the wash, cells were spun at 1100 RPM for 5 minutes. The supernatant was aspirated and then cells were resuspended in lysis buffer containing protease and phosphatase inhibitors. This was followed by centrifugation for 15 minutes at 14000 RPM at 4° C. Supernatant was transferred to a fresh tube. Lysates were stored at −80° C. until assayed.
Samples were thawed and mixed well by vortexing for 5 seconds. 60 μL of each sample was added into the 96-well mixing plate followed by addition of 60 μL of covalent probe solution (2 μM probe in PBS+0.05% Tween-20+1% BSA; 1:2 sample dilution) to each well containing sample. An adhesive cover was then placed on the plate followed by mixing of the plate on a shaker for 1 hour at room temperature. The streptavidin plate was pre-washed 3 times with PBS+0.05% Tween-20. 50 μL of the standards, QCs, and samples were then transferred from the mixing plate to the streptavidin plate. The plate was covered with an adhesive cover and mixed while shaking for 1 hour at room temperature. A 1:1000 dilution of the primary anti-Btk antibody (catalog #611116, Becton Dickinson; Franklin Lakes, N.J.) in PBS+0.05% Tween-20+0.5% BSA was prepared. The streptavidin plate was washed 3 times with PBS+0.05% Tween-20 and 50 μL/well of diluted anti-Btk antibody was then pipetted into the streptavidin plate. The plate was covered and incubated for 1 hour at room temperature. A 1:5000 dilution of secondary antibody (goat anti-mouse-HRP, catalog #62-6520, Zymed-Invitrogen; Carlsbad, Calif.) in PBS+0.05% Tween-20+0.5% BSA was prepared. The streptavidin plate was again washed 3 times with PBS+0.05% Tween-20 and 50 μL/well of diluted secondary antibody was pipetted into the streptavidin plate. The plate was covered and incubated for 1 hour at room temperature. The streptavidin plate was again washed 3 times with PBS+0.05% Tween-20 followed by the addition of 100 μL of TMB solution to each well. The plate was then read on a Synergy^2 plate reader at OD 650 nm until the OD maximum reached 1.0. This was followed by the addition of 100 μL of the Stop Solution. The plate was then read at OD 450 nm. A human recombinant Btk protein standard curve (11.7-3000 pg/μL) was plotted using a 4 parameter curve fit in GenS software (Version 1.05.11; Biotek; Winooski, Vt.;). The sample ODs were read against the standard curve to calculate free protein amounts.
Data were generated as ODs on an ELISA plate reader (Synergy^2, BioTek; Winooski, Vt.). Uninhibited Btk captured by the biotinylated covalent probe was quantitated and normalized to untreated control samples. Results were expressed as % Btk occupancy. EC50 values were generated using a 4 parameter curve fit analysis in GraphPad Prism version 5.0.

[1] = biological target: T2, human recombinant full-length Btk enzyme (Homo sapiens, UniProt Q06187); experiment: Omnia Continuous Read Kinase Assay, Btk inhibition; assay type: biochemical; set-up: human recombinant full-length Btk enzyme; details: 30 minutes pre-incubation at 27° C.; 0.5 nM to 10 μM
Excerpt: The following Example describes testing certain compounds according to the invention for inhibition of BTK activity. The Omnia® Continuous Read Kinase Assay uses an unnatural amino acid chelation enhanced fluorophore (Sox; 8-hydroxy-5-(N,N-dimethylsulfonamido)-2 methylquinoline) incorporated into a kinase-specific peptide substrate to characterize Btk enzyme kinetics and inhibition. Following Btk-mediated phosphorylation, a sensitive, highly quantifiable increase in real-time fluorescence is noted based upon the ability of chelated Mg2+ to form a bridge between Sox and the phosphate group on a tyrosine residue of the peptide substrate. The Omnia® continuous read assay was performed essentially as described by the vendor (Invitrogen; Carlsbad, Calif.). First, a 10× stock of human recombinant full-length Btk enzyme was prepared in Kinase Reaction Buffer. 5 μL of the 10× enzyme was pre-incubated with 0.5 μL of serially diluted compound prepared in 50% DMSO, in a 384-well microtiter plate for 30 minutes at 27° C. 1.13×ATP and the Tyr5-Sox conjugated peptide substrate were prepared in 1× Kinase Reaction Buffer. Kinase reactions were initiated by the addition of 45 μL of the 1.13×ATP-Sox peptide substrate master mix and monitored every 30 to 90 seconds for 60 minutes at λex360/λem485 in a Synergy plate reader. The IC50 values for each compound assayed were determined from test concentrations of 0.5 nM to 10 μM in half-log intervals performed in duplicate.
At the conclusion of each assay, progress curves from each well were examined for linear reaction kinetics and fit statistics (R2, 95% confidence interval, absolute sum of squares) using GraphPad software (GraphPad Prism version 5.01; San Diego, Calif.). Initial velocity (0 minutes to ˜30+ minutes) from each reaction was determined from the slope of a plot of relative fluorescence units versus time (minutes). Using control normalized % inhibition data, plots were constructed against inhibitor concentration to estimate IC50 from log [inhibitor] versus response using a variable slope model in GraphPad. The compound numbers correspond to the compound numbers in Table 1.

[2] = biological target: T2, human recombinant full-length Btk enzyme; experiment: Covalent bonding assay, intact protein MALDI mass spectrometry; assay type: binding; set-up: The full-length recombinant human Btk protein; purchased Invitrogen Lot #619547Q (catalogue number not given); details: percentage of total protein covalently modified after one hour incubation, 10-fold excess of compound, room temperature
Method: The following example describes testing certain compounds to determine whether they covalently bind to BTK. The full-length recombinant human Btk protein (Lot #619547Q; 0.35 mg/mL) was obtained from Invitrogen (Carlsbad, Calif.). Btk protein was diluted 2:3 in phosphate-buffered saline and stock concentration (10 mM) of compound was diluted 1:115 in 50% DMSO.
For all compounds, 1 μL of diluted compound was added to 5 μL of diluted protein. These mixtures were then incubated for 60 minutes at a 10-fold excess of compound to protein under room temperature (˜24° C.) conditions.
At the end of the incubation, 5 μL aliquots of the samples were diluted with 15 μL of 0.2% TFA prior to micro C4 ZipTipping® directly onto the MALDI target plate using sinapinic acid as the desorption matrix (10 mg/mL in 0.2% TFA:Acetonitrile 50:50). Samples were immediately analyzed on an ABSciex 4800 MALDI TOF-TOF mass spectrometer.
For intact protein mass measurement, the mass spectrometer was set in linear mode using a pulsed extraction setting of 81,500. Bovine serum albumin (BSA; Sigma, St Louis, Mo.) was used as the standard to calibrate the instrument. These values correspond to the percentage of total protein covalently modified by the tested compound after one hour incubation.

[3] = tested on: TNF-α, IL-1β, and other inflammatory cytokines; details: LPS-stimulated hPBMC and human whole blood; cited from earlier work

T1 sequence (Q06187 whole entry): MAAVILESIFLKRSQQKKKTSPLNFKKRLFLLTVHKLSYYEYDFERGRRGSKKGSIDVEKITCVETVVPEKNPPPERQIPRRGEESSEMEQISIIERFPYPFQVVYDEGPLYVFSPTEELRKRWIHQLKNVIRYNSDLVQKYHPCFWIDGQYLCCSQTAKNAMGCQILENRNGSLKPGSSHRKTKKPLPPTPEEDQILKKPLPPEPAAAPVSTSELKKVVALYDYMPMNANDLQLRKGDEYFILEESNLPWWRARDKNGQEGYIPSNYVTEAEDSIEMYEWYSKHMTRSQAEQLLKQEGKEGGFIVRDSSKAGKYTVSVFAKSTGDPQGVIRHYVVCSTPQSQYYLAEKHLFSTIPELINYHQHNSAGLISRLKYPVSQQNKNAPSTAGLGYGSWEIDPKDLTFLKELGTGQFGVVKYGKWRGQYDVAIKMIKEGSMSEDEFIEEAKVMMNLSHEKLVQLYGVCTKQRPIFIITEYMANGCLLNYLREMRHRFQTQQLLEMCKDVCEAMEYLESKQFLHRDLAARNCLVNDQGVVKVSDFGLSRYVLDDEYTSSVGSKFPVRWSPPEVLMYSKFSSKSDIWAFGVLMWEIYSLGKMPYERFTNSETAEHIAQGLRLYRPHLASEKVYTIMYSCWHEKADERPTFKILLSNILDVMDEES
T2 sequence (Q06187 whole entry): as above

Row | EC50 (BTK) | IC50 [1] | MS % modification [2] | SMILES | inhibition of TNF-α, IL-1β, and other inflammatory cytokines [3]
1 | > 200 nM | ≤ 10 nM | – | C=CC(=O)Nc1cccc(Nc2nc(Nc3ccc(OCC(=O)O)cc3)ncc2F)c1 [Compound I-2, 2-(4-((4-((3-acrylamidophenyl)amino)-5-fluoropyrimidin-2-yl)amino)phenoxy)acetic acid] | –
2 | – | 101 to 500 nM | C (<30% modification) | COCCOc1ccc(Nc2ncc(F)c(Nc3cccc(NC(=O)C(O)CO)c3)n2)cc1 (centres unmarked) [Compound I-4, N-(3-((5-fluoro-2-((4-(2-methoxyethoxy)phenyl)amino)pyrimidin-4-yl)amino)phenyl)-2,3-dihydroxypropanamide] | –
3 | – | 101 to 500 nM | C (<30% modification) | O=C(Nc1cccc(Nc2nc(Nc3ccc(OCCO)cc3)ncc2F)c1)C(O)CO (centres unmarked) [Compound I-5, N-(3-((5-fluoro-2-((4-(2-hydroxyethoxy)phenyl)amino)pyrimidin-4-yl)amino)phenyl)-2,3-dihydroxypropanamide] | –
4 | – | 101 to 500 nM | C (<30% modification) | O=C(Nc1cccc(Nc2nc(Nc3ccc(O)cc3)ncc2F)c1)C(O)CO (centres unmarked) [Compound I-6, N-(3-((5-fluoro-2-((4-hydroxyphenyl)amino)pyrimidin-4-yl)amino)phenyl)-2,3-dihydroxypropanamide] | –
5 | < 50 nM | ≤ 10 nM | – | C=CC(=O)Nc1cccc(Nc2nc(Nc3ccc(OCCOC)c(O)c3)ncc2F)c1 [Compound I-13, N-(3-((5-fluoro-2-((3-hydroxy-4-(2-methoxyethoxy)phenyl)amino)pyrimidin-4-yl)amino)phenyl)acrylamide] | –
6 | – | ≤ 10 nM | – | C=CC(=O)Nc1cccc(Nc2nc(Nc3ccc(OCCOC)cc3O)ncc2F)c1 [Compound I-14, N-(3-((5-fluoro-2-((2-hydroxy-4-(2-methoxyethoxy)phenyl)amino)pyrimidin-4-yl)amino)phenyl)acrylamide] | –
7 | – | 11 to 100 nM | – | C=CC(=O)Nc1ccc(O)c(Nc2nc(Nc3ccc(OCCOC)cc3)ncc2F)c1 [Compound I-15, N-(3-((5-fluoro-2-((4-(2-methoxyethoxy)phenyl)amino)pyrimidin-4-yl)amino)-4-hydroxyphenyl)acrylamide] | –
8 | – | ≤ 10 nM | – | C=CC(=O)Nc1cc(O)cc(Nc2nc(Nc3ccc(OCCOC)cc3)ncc2F)c1 [Compound I-16, N-(3-((5-fluoro-2-((4-(2-methoxyethoxy)phenyl)amino)pyrimidin-4-yl)amino)-5-hydroxyphenyl)acrylamide] | –
9 | – | ≤ 10 nM | – | C=CC(=O)Nc1cc(Nc2nc(Nc3ccc(OCCOC)cc3)ncc2F)ccc1O [Compound I-17, N-(5-((5-fluoro-2-((4-(2-methoxyethoxy)phenyl)amino)pyrimidin-4-yl)amino)-2-hydroxyphenyl)acrylamide] | –
10 | < 50 nM | ≤ 10 nM | – | C=CC(=O)Nc1cccc(Nc2nc(Nc3ccc(OCCOC)cc3)ncc2F)c1O [Compound I-18, N-(3-((5-fluoro-2-((4-(2-methoxyethoxy)phenyl)amino)pyrimidin-4-yl)amino)-2-hydroxyphenyl)acrylamide] | –
11 | < 10 nM | ≤ 10 nM | A (>70% modification) | COCCOc1ccc(Nc2ncc(F)c(Nc3cccc(NC(=O)C4CO4)c3)n2)cc1 (centres unmarked) [Compound I-19, N-(3-((5-fluoro-2-((4-(2-methoxyethoxy)phenyl)amino)pyrimidin-4-yl)amino)phenyl)oxirane-2-carboxamide] | –
12 | < 50 nM | ≤ 10 nM | – | O=C(Nc1cccc(Nc2nc(Nc3ccc(OCCO)cc3)ncc2F)c1)C1CO1 (centres unmarked) [Compound I-22, N-(3-((5-fluoro-2-((4-(2-hydroxyethoxy)phenyl)amino)pyrimidin-4-yl)amino)phenyl)oxirane-2-carboxamide] | –
13 | < 100 nM | ≤ 10 nM | – | C=CC(=O)N(C)c1cccc(Nc2nc(Nc3ccc(OCCO)cc3)ncc2F)c1 [Compound I-23, N-(3-((5-fluoro-2-((4-(2-hydroxyethoxy)phenyl)amino)pyrimidin-4-yl)amino)phenyl)-N-methylacrylamide] | –
14 | < 10 nM | ≤ 10 nM | – | C=CC(=O)Nc1cccc(N(C)c2nc(Nc3ccc(OCCO)cc3)ncc2F)c1 [Compound I-24] | –
15 | – | 101 to 500 nM | – | C=CC(=O)Nc1cccc(Nc2nc(N(C)c3ccc(OCCO)cc3)ncc2F)c1 [Compound I-25, N-(3-((5-fluoro-2-((4-(2-hydroxyethoxy)phenyl)(methyl)amino)pyrimidin-4-yl)amino)phenyl)acrylamide] | –
16 | – | > 501 nM | – | COCCOc1ccc(Nc2ncc(F)c(Nc3cccc(NC(=O)CCO)c3)n2)cc1 [Compound I-26, N-(3-((5-fluoro-2-((4-(2-methoxyethoxy)phenyl)amino)pyrimidin-4-yl)amino)phenyl)-3-hydroxypropanamide] | –
17 | – | 101 to 500 nM | – | COCCOc1ccc(Nc2ncc(F)c(Nc3cccc(N4OCCC4=O)c3)n2)cc1 [Compound I-27] | –
18 | – | – | – | Cc1nc2cccc(N)c2c(=O)n1C1CCC(=O)NC1=O (centres unmarked) [compound of formula D, 3-(5-amino-2-methyl-4-oxo-4H-quinazolin-3-yl)-piperidine-2,6-dione] | markedly inhibits
